Results on eight compounds are retold here after ChEMBL document CHEMBL3991601, “The target landscape of clinical kinase drugs” (Science, 2017).

For experiment [1], the target named is Ephrin type-A receptor 7 (Homo sapiens, UniProt Q15375).
The target of experiment [2] is Aurora kinase B (Homo sapiens, UniProt Q96GD4).
Experiment [3] addresses T1, Cyclin-G-associated kinase (Homo sapiens, UniProt O14976).
T1 sequence (O14976 whole entry): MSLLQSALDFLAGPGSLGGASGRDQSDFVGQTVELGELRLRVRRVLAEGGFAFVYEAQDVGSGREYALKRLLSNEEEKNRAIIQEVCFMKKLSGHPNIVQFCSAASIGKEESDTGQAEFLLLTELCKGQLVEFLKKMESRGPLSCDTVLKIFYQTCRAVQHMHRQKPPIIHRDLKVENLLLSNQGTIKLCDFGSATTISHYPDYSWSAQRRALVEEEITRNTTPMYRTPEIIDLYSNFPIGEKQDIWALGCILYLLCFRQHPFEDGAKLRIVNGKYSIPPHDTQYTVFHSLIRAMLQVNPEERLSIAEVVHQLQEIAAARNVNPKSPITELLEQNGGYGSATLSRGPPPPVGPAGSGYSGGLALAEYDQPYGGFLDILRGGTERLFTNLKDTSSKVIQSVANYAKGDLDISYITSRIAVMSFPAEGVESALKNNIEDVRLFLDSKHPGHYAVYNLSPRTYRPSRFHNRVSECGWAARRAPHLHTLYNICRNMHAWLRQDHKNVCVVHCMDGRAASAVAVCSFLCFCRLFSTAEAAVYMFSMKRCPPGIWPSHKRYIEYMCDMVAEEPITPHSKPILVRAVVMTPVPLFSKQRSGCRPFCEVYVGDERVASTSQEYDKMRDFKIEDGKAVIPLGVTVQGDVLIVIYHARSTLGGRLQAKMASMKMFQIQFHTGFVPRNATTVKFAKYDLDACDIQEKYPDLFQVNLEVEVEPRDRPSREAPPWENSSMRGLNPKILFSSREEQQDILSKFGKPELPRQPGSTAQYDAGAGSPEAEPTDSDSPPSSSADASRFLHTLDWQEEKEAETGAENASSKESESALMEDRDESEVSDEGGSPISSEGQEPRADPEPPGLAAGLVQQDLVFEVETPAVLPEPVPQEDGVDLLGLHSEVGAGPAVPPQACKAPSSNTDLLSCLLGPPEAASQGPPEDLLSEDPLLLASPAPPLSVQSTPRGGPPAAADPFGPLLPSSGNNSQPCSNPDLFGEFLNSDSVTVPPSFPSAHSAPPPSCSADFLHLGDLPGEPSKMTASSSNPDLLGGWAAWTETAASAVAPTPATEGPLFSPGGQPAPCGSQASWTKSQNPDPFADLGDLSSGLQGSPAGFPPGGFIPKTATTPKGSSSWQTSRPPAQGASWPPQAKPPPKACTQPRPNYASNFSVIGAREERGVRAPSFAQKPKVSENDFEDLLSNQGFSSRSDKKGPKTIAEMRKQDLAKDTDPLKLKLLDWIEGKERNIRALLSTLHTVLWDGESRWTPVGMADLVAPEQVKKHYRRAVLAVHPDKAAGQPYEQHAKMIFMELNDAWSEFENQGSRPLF

For experiment [4], the target named is Receptor-interacting serine/threonine-protein kinase 3 (Homo sapiens, UniProt Q9Y572).
Experiment [5] has as its target Deoxycytidine kinase (Homo sapiens, UniProt P27707).
Experiment [6] addresses Tyrosine-protein kinase SYK (Homo sapiens, UniProt P43405).
Experiment [7] concerns the target NADH dehydrogenase [ubiquinone] 1 alpha subcomplex subunit 13 (Homo sapiens, UniProt Q9P0J0).
Experiment [8] deals with Putative heat shock protein HSP 90-beta 2 (Homo sapiens, UniProt Q58FF8).
Experiment [9] concerns the target Mitotic checkpoint serine/threonine-protein kinase BUB1 (Homo sapiens, UniProt O43683).
In experiment [10] the target is Serine/threonine-protein kinase 26 (Homo sapiens, UniProt Q9P289).
The target of experiment [11] is RAC-alpha serine/threonine-protein kinase (Homo sapiens, UniProt P31749).
The target in experiment [12] is Protein-tyrosine kinase 2-beta (Homo sapiens, UniProt Q14289).
For experiment [13], the target named is T2, Dynamin-like GTPase OPA1, mitochondrial (Homo sapiens, UniProt O60313).
T2 sequence (O60313 whole entry): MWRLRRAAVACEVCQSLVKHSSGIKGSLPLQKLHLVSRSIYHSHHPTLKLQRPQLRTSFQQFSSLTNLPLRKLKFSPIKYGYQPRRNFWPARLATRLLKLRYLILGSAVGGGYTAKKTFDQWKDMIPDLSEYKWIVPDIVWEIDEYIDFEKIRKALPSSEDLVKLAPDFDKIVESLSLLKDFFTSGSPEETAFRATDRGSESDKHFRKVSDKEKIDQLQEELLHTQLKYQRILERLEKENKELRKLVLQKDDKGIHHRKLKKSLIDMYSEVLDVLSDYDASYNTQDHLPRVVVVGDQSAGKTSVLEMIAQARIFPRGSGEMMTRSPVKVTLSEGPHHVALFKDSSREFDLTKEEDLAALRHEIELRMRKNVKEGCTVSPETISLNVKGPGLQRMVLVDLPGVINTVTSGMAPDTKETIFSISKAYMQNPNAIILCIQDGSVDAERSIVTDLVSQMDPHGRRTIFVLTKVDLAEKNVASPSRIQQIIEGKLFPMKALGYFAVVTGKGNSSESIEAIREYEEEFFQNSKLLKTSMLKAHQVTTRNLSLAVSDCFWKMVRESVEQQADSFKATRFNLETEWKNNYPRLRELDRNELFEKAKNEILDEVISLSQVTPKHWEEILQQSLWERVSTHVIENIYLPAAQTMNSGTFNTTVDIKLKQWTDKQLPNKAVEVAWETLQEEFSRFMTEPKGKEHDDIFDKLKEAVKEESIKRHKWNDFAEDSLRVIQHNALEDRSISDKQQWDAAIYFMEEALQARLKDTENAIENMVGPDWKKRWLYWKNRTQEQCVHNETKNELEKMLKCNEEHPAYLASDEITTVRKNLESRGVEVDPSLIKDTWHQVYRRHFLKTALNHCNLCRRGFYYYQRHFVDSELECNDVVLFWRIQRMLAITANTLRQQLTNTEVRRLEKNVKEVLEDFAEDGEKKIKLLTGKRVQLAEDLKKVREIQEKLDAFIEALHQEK

Experiment [14] addresses Serine/threonine-protein kinase MRCK beta (Homo sapiens, UniProt Q9Y5S2).
For experiment [15], the target named is Tyrosine-protein kinase JAK1 (Homo sapiens, UniProt P23458).

Calls of active or inactive are those of the source. Rule as the data show it, for most assays here: actives have a measured Kd and inactives only a lower limit.
Also: in the data inactive means no Kd found up to 30 µM.

Chain of Aurora kinase B (Q96GD4 whole entry): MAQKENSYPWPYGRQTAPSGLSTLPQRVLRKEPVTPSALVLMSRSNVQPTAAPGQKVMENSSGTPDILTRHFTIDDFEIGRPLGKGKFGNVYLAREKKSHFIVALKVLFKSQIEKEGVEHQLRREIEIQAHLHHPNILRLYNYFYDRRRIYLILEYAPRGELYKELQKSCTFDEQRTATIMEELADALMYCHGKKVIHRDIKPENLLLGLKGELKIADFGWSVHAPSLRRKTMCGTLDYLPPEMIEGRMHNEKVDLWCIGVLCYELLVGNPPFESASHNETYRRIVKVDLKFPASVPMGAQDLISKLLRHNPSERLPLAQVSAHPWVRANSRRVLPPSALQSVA
Chain of NADH dehydrogenase [ubiquinone] 1 alpha subcomplex subunit 13 (Q9P0J0 whole entry, one chain of several): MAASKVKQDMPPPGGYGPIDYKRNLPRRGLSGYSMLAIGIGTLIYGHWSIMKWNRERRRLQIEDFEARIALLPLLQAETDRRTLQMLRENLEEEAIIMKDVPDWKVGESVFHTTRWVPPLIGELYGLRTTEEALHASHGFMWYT
Chain of Mitotic checkpoint serine/threonine-protein kinase BUB1 (O43683 whole entry): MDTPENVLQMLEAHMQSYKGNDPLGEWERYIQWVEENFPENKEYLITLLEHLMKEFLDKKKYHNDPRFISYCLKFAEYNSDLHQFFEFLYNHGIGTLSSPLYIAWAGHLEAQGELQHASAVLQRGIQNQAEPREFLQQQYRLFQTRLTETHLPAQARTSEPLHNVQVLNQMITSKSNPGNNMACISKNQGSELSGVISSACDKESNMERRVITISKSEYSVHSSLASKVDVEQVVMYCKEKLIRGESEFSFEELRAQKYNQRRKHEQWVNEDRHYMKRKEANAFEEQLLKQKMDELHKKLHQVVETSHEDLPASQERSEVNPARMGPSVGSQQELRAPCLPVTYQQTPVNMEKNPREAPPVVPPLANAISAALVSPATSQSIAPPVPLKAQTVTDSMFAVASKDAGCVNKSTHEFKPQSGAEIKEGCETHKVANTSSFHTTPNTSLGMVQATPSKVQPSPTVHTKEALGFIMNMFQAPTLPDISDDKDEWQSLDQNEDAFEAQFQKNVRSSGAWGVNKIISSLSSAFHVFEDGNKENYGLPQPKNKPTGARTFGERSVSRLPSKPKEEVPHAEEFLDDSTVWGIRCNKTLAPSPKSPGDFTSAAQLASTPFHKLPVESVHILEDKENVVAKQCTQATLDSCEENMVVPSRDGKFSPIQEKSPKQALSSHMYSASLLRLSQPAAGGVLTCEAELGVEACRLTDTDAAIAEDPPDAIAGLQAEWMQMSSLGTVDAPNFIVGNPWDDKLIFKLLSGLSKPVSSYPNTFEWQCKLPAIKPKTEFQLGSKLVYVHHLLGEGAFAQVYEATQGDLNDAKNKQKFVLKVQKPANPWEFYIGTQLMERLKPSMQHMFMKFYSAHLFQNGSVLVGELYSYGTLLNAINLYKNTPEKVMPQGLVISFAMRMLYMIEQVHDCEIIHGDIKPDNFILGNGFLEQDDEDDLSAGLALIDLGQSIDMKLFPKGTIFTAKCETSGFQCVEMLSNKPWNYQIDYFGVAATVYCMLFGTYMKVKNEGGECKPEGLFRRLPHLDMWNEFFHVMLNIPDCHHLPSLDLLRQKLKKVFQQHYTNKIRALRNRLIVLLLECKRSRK
Chain of Serine/threonine-protein kinase 26 (Q9P289 whole entry): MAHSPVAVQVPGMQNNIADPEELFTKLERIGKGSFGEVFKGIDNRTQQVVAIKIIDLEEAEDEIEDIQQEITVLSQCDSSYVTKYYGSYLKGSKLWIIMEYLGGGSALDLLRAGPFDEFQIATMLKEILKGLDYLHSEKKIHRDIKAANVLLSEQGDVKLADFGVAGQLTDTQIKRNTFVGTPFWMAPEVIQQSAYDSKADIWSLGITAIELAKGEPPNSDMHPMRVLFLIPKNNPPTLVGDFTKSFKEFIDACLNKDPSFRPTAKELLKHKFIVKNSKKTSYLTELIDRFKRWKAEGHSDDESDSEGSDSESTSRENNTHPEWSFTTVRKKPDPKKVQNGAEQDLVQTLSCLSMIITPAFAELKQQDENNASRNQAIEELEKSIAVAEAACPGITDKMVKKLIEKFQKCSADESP
Chain of Ephrin type-A receptor 7 (Q15375 whole entry): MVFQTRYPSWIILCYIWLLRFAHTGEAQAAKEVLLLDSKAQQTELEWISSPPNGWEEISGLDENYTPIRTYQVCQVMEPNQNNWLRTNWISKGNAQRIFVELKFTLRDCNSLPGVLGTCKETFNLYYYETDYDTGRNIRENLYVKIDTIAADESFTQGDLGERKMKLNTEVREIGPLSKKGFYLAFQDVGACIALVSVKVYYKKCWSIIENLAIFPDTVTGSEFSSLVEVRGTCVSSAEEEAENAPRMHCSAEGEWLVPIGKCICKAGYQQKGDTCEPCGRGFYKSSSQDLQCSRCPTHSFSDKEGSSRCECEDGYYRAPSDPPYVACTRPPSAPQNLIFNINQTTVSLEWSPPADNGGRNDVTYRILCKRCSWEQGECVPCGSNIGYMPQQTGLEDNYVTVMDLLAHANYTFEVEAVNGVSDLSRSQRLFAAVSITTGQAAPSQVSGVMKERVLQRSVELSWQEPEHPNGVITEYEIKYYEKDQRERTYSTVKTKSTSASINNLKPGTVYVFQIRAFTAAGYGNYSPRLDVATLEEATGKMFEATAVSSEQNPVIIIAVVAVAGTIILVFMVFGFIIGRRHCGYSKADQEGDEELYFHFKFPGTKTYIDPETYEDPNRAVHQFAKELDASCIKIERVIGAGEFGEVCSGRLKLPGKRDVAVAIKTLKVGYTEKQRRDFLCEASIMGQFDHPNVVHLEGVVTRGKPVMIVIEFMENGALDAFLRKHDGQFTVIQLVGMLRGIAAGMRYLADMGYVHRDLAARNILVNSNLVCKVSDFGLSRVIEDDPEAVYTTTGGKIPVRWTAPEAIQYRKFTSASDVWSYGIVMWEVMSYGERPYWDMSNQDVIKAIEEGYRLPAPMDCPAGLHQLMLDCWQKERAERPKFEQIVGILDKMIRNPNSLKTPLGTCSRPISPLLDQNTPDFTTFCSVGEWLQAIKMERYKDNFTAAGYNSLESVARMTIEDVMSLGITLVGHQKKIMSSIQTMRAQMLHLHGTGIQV
Chain of Serine/threonine-protein kinase MRCK beta (Q9Y5S2 whole entry): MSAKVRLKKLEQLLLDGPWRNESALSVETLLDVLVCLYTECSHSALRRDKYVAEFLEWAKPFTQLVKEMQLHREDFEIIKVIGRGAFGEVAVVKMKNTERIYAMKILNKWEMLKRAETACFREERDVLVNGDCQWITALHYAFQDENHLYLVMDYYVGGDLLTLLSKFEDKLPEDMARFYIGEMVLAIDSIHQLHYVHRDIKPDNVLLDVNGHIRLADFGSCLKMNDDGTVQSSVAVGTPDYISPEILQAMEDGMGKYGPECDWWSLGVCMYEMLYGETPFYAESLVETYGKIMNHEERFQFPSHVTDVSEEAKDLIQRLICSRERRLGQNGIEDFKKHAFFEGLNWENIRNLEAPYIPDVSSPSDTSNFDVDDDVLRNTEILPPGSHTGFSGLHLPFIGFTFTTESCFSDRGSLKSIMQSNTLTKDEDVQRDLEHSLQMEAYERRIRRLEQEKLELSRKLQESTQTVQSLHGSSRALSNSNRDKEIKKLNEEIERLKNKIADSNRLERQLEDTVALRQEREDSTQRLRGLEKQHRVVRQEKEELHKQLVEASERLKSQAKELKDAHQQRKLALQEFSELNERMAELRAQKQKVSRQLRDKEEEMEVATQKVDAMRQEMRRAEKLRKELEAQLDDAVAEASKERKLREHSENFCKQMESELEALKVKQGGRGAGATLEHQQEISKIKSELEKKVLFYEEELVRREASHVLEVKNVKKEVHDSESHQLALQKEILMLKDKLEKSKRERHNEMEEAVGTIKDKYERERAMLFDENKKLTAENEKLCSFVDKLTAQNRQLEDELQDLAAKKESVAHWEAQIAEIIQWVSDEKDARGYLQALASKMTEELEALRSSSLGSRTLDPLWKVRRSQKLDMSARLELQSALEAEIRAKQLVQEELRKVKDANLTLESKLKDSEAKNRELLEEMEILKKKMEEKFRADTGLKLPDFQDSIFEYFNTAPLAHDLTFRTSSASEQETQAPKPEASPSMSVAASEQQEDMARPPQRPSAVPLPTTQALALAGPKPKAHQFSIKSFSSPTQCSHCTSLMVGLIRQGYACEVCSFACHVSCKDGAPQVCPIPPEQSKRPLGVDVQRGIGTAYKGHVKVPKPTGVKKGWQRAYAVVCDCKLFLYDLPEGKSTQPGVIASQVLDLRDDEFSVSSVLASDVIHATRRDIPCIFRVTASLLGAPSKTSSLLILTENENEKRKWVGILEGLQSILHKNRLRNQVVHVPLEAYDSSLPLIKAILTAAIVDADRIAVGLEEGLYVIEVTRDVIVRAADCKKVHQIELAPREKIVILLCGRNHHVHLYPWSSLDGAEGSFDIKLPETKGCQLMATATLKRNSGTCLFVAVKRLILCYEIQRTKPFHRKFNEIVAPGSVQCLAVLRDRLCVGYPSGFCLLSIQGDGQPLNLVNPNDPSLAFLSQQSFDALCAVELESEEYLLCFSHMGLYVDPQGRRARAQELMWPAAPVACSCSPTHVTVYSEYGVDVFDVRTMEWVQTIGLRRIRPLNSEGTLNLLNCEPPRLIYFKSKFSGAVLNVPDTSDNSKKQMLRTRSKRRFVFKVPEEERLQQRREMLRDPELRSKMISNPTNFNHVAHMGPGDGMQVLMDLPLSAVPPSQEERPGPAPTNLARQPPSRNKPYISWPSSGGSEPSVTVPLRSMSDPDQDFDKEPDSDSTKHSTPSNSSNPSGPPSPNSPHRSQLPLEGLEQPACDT
Chain of Deoxycytidine kinase (P27707 whole entry): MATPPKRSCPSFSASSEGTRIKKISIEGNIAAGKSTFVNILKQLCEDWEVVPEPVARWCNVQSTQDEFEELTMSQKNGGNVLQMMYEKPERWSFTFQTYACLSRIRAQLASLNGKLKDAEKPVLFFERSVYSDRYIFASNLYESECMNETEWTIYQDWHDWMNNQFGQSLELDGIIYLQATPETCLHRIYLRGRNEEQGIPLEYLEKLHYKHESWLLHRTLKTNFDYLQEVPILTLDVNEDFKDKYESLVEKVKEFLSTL

Regarding `N#CCNC(=O)c1ccc(-c2ccnc(Nc3ccc(N4CCOCC4)cc3)n2)cc1` [MOMELOTINIB], the Kd in [1] was > 30 µM (inactive); in experiment [2], > 30 µM (inactive); in [3] it was 0.822 µM (active); in [4], > 30 µM (inactive); in experiment [5] it was > 30 µM (inactive); in experiment [6], > 30 µM (inactive). Moreover, the Kd in [7], in experiment [8], in experiment [9], in [10] and in experiment [11] was > 30 µM (inactive) each time.
As to `COc1cccc(Nc2ncnn3ccc(CN4CC[C@@H](N)[C@H](O)C4)c23)c1` [BMS-690514], the Kd in [1] was > 30 µM (inactive); in experiment [12], > 30 µM (inactive); in experiment [2], > 30 µM (inactive); in experiment [3], 0.0003 µM (active); in experiment [4], > 30 µM (inactive); in experiment [13], > 30 µM (inactive). Further, the Kd in experiment [5], in experiment [14], in experiment [6], in [8], in experiment [9] and in experiment [15] was > 30 µM (inactive) throughout. Also, the Kd in experiment [10] and in experiment [11] was > 30 µM (inactive) in each case.
For `Cn1cc(-c2[nH]c3cc(NC(=O)[C@H](N)C4CCCCC4)cc4c3c2C=NNC4=O)cn1`, the Kd in experiment [1] was > 30 µM (inactive); in experiment [12], > 30 µM (inactive); in [2], 0.12 µM (active); in [3], 0.023 µM (active); in experiment [4] it was > 30 µM (inactive); in experiment [13], > 30 µM (inactive). Besides, the Kd in experiment [5], in experiment [14], in experiment [6], in [7], in [8] and in experiment [9] was > 30 µM (inactive) in each case. Also, the Kd in experiment [10] and in experiment [11] was > 30 µM (inactive) in each case.
Consider `NC[C@@](O)(c1ccc(Cl)cc1)c1ccc(-c2cn[nH]c2)cc1` [AT-13148], for which the Kd in [1], in experiment [12], in experiment [2], in experiment [3], in experiment [4] and in experiment [13] was > 30 µM (inactive) throughout. Besides, the Kd in experiment [5], in experiment [14], in [6], in experiment [7], in experiment [8] and in experiment [15] was > 30 µM (inactive) each time. Moreover, the Kd in experiment [10] and in [11] was > 30 µM (inactive) throughout.
For the compound `CCOc1ccn(-c2ccc(F)cc2)c(=O)c1C(=O)Nc1ccc(Oc2ccnc(N)c2Cl)c(F)c1` [BMS-777607], the Kd was > 30 µM (inactive) in [1]; > 30 µM (inactive) in experiment [12]; 1.07 µM (active) in [2]; > 30 µM (inactive) in experiment [3]; > 30 µM (inactive) in [4]; > 30 µM (inactive) in experiment [13]. In addition, the Kd in experiment [5], in experiment [14], in [6], in [8], in experiment [15] and in [10] was > 30 µM (inactive) each time. In addition, the Kd in experiment [11] was > 30 µM (inactive).
In the case of `C=CC(=O)Nc1cccc(Nc2nc(Nc3ccc(N4CCN(C(C)=O)CC4)cc3OC)ncc2C(F)(F)F)c1` [ROCILETINIB], the Kd in [1] was > 30 µM (inactive); in experiment [12] it was > 30 µM (inactive); in experiment [2] it was > 30 µM (inactive); in [3] it was 0.45 µM (active); in experiment [4], > 30 µM (inactive); in experiment [13], > 30 µM (inactive). Moreover, the Kd in experiment [5], in experiment [14], in [6], in experiment [7], in experiment [8] and in experiment [15] was > 30 µM (inactive) throughout. Further, the Kd in [10] and in [11] was > 30 µM (inactive) in each case.
As for `O=C(NOC[C@H](O)CO)c1ccc(F)c(F)c1Nc1ccc(I)cc1F` [MIRDAMETINIB], the Kd in [12], in experiment [2], in experiment [3], in [4], in [13] and in experiment [5] was > 30 µM (inactive) each time. For the same compound, the Kd in [14], in experiment [6], in experiment [7], in experiment [8], in experiment [9] and in experiment [15] was > 30 µM (inactive) throughout. Moreover, the Kd in experiment [10] and in experiment [11] was > 30 µM (inactive) in each case.
Consider `COc1ccc(-c2ccc3ncc4c(c3c2)n(-c2ccc(N3CCNCC3)c(C(F)(F)F)c2)c(=O)n4C)cn1` [BGT-226 FREE BASE], for which the Kd in experiment [12], in experiment [2], in experiment [3], in experiment [4], in experiment [13] and in experiment [5] was > 30 µM (inactive) each time. The Kd in experiment [14], in experiment [6], in experiment [7], in experiment [8], in [9] and in experiment [15] was > 30 µM (inactive) throughout. The Kd in experiment [10] and in [11] was > 30 µM (inactive) each time.
